# Target: T1, 5-lipoxygenase (Rattus norvegicus, UniProt P12527)
# T1 construct: 20,000×g supernatant from 6×10^4 homogenized RBL-1 cells; endogenous in cells; host or cells: RBL-1 cells (20,000×g supernatant of homogenate)
# T1 sequence (P12527 1-673): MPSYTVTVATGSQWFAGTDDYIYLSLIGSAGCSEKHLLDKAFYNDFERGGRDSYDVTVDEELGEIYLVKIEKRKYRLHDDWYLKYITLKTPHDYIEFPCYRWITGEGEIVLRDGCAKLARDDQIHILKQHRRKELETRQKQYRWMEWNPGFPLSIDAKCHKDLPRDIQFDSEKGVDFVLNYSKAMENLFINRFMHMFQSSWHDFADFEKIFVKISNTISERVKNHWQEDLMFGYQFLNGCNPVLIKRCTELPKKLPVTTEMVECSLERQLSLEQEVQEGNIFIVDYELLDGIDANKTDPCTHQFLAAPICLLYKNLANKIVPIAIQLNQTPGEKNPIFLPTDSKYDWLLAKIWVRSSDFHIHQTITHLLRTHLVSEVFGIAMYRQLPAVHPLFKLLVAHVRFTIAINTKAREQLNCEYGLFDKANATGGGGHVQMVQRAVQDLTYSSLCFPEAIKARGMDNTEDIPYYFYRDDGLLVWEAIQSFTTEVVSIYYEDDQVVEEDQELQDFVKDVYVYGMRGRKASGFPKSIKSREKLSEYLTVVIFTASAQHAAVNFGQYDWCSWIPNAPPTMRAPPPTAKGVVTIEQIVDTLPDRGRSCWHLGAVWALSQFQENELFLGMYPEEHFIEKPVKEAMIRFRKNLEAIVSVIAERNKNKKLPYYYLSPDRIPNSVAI
# Test: 5-lipoxygenase inhibition, 20,000×g supernatant of homogenized RBL-1 cells, radiolabelled arachidonic acid
# Assay type: biochemical
# Details: In vitro 5-lipoxygenase inhibitory potency; RBL-1 cell 20,000×g supernatant, 2% DMSO
# Experimental: Assays to determine 5-lipoxygenase activity were performed in 200 μL incubations containing the 20,000×g supernatant from 6×10^4 homogenized RBL-1 cells, 2% DMSO vehicle and various concentrations of the test compound. Reactions were initiated by addition of radiolabelled arachidonic acid and terminated by acidification and ether extraction. Reaction products were separated from nonconverted substrate by thin layer chromatography and measured by liquid scintillation spectroscopy. All treatments were evaluated in triplicate incubations. Inhibition of 5-lipoxygenase activity was computed by comparison of the quantity of products formed in the treatment incubations to the mean product formation in vehicle control groups (n=8). IC50 values and 95% confidence limits were computed by linear regression analysis of percentage inhibition versus log inhibitor concentration plots. The results of the assay indicate that the compounds are inhibitors of 5-lipoxygenase.
row,SMILES,IC50 [µM]
1,"CNC(=O)N(O)Cc1nc2ccccc2n1C [Example 1, N-hydroxy-N-(1-methyl-benzo[b]imidazol-2-ylmethyl)N'-methylurea]",85
2,"CC(c1nc2ccccc2s1)N(O)C(N)=O (centres unmarked) [Example 2, N-hydroxy-N-(1-benzo[b]thiazol-2-ylethyl)urea]",1.9
